Among the data in patent US8030321B2, “Benzofuro- and benzothienopyrimidine modulators of the histamine H4 receptor” (Janssen Pharmaceutica, NV, priority 2006, dated 2011) are Ki values, retold here.

Structures are written as SMILES. Where a name gives a salt, the structure may show the parent alone. A value given as a limit tells only on which side of the number the result lay.

In the first assay the target is T1, human histamine H4 receptor (Homo sapiens, UniProt Q9H3N8).
T1 construct: expressed in transfected cells; host or cells: SK-N-MC cells or COS7 cells, transiently transfected; cell membranes used
T1 sequence (Q9H3N8 whole entry): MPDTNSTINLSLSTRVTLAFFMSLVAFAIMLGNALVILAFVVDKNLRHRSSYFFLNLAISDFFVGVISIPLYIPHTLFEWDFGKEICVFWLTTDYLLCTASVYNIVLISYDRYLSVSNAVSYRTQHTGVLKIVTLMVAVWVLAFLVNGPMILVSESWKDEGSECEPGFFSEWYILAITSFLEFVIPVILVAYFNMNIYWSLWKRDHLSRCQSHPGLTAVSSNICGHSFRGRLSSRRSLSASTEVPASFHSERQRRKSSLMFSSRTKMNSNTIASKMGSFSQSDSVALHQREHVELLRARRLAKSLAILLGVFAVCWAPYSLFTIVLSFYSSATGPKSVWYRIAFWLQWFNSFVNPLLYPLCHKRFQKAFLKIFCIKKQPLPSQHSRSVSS
Briefly: Binding Assay on Recombinant Human Histamine H4 Receptor.
Details: not given
The essentials:
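Membranes from SK-N-MC or COS7 cells transiently transfected with human H4 receptor were incubated with ³H-histamine (5-70 nM); nonspecific binding defined with 10,000 nM histamine. Bound radioactivity collected by GF/C filtration and scintillation counting; test compounds assessed by displacement of ³H-ligand binding across concentrations.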
Broadly, the Ki is the dissociation constant of the complex between target and ligand, obtained from inhibition or displacement. For the compound `Nc1nc(N2CC3CCCNC3C2)c2sc3ccc(Cl)cc3c2n1` (stereo not drawn) [Example 64, 8-Chloro-4-(octahydro-pyrrolo[3,4-b]pyridin-6-yl)-benzo[4,5]thieno[3,2-d]pyrimidin-2-ylamine trifluoroacetic acid salt], the Ki was found to be 0.005 µM.

For `COc1ccc2oc3c(N4C[C@H]5CCN[C@H]5C4)nc(N)nc3c2c1` (relative stereo) [Example 114, (cis)-4-(Hexahydro-pyrrolo[3,4-b]pyrrol-5-yl)-8-methoxy-benzo[4,5]furo[3,2-d]pyrimidin-2-ylamine trifluoroacetic acid salt], the Ki is 0.091 µM.

Turning to `Nc1nc(N2CC3CCCNC3C2)c2oc3ccc(Cl)cc3c2n1` (stereo not drawn) [Example 9, 8-Chloro-4-(octahydro-pyrrolo[3,4-b]pyridin-6-yl)-benzo[4,5]furo[3,2-d]pyrimidin-2-ylamine], the inhibition constant (Ki) stood at 0.0021 µM.

Still in this assay, the particulars now being: competition binding with 3H-histamine (5 nM), membranes of SK-N-MC or COS7 cells expressing human H4 receptor; Cheng-Prusoff, KD 5 nM; average of results obtained; read-out: Ki.
With `Nc1nc(N2CCNCC2)c2oc3cccc(F)c3c2n1` [Example 137, 9-Fluoro-4-piperazin-1-yl-benzo[4,5]furo[3,2-d]pyrimidin-2-ylamine trifluoroacetic acid salt], the Ki amounted to 0.15 µM. With `COc1ccc2oc3c(N4CCN(C)CC4)nc(N)nc3c2c1` [Example 89, 8-Methoxy-4-(4-methyl-piperazin-1-yl)-benzo[4,5]furo[3,2-d]pyrimidin-2-ylamine trifluoroacetic acid salt], the Ki stood at 0.012 µM. Still for that read-out and setting: the value for `Nc1nc(N2CC[C@@H](N)C2)c2oc3ccccc3c2n1` [Example 108, (R)-4-(3-Amino-pyrrolidin-1-yl)-benzo[4,5]furo[3,2-d]pyrimidin-2-ylamine] was 0.0026 µM. Still for that read-out and setting: the value for `NC1CN(c2nc(NCCO)nc3c2oc2ccc(Cl)cc23)C1` [Example 162, 2-[4-(3-Amino-azetidin-1-yl)-8-chloro-benzo[4,5]furo[3,2-d]pyrimidin-2-ylamino]-ethanol] was above 10 µM; that for `OCCNc1nc(N2C[C@H]3CCCN[C@H]3C2)c2oc3ccc(Cl)cc3c2n1` (relative stereo) [Example 117, (cis)-2-[8-Chloro-4-(octahydro-pyrrolo[3,4-b]pyridin-6-yl)-benzo[4,5]furo[3,2-d]pyrimidin-2-ylamino]-ethanol] was 0.93 µM.

With `CN[C@@H]1CCN(c2nc(N)nc3c2oc2ccc(OC)cc23)C1` [Example 102, (R)-8-Methoxy-4-(3-methylamino-pyrrolidin-1-yl)-benzo[4,5]furo[3,2-d]pyrimidin-2-ylamine trifluoroacetic acid salt], the Ki amounted to 0.012 µM. The same measure, in the same setting: the result for `CN1CCN(c2nc(NCCO)nc3c2oc2ccccc23)CC1` [Example 116, 2-[4-(4-Methyl-piperazin-1-yl)-benzo[4,5]furo[3,2-d]pyrimidin-2-ylamino]-ethanol] reads 0.068 µM. Still for that read-out and setting: the value for `Nc1nc(N2CCCNCC2)c2oc3ccc(Cl)cc3c2n1` [Example 7, 8-Chloro-4-[1,4]diazepan-1-yl-benzo[4,5]furo[3,2-d]pyrimidin-2-ylamine trifluoroacetic acid salt] was 0.0011 µM; that for `CN1CCN(c2nc(N)nc3c2sc2ccccc23)CC1` [Example 44, 4-(4-Methyl-piperazin-1-yl)-benzo[4,5]thieno[3,2-d]pyrimidin-2-ylamine] was 0.029 µM.
